Assay results taken from patent publication US20250170248A1, “SMARCA DEGRADERS AND USES THEREOF” (Kymera Therapeutics, Inc., priority 2021, published 2025).

What was measured:
Format in all cases: cell-based
SMARCA2 [1] = target: T1, SMARCA2 (Homo sapiens, UniProt P51531); assay: MSD SMARCA2 degradation in A549 cell line; settings: for SMARCA2 MSD A549 degradation 24 h: Average Dmax % / DC50: A549 cells; for DC50 / Dmax: 24 h; for DC50: read-out: SMARCA2 MSD A549 degradation 24 h: Average external-Abs DC50; for Dmax: A549, A549 cells
In short: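 SMARCA2 protein remaining after 24 h exposure of A549 cells (top concentration 1000 nM, 3-fold dilutions) was measured by MSD electrochemiluminescence immunoassay of cell lysates. Results are given as binned DC50 and maximal degradation (Dmax) codes.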

SMARCA4 = target: T2, SMARCA4 (Homo sapiens, UniProt P51532); assay: SMARCA4 Western blot degradation in MV4-11 cells; settings: for SMARCA4 MSD MV411 degradation 24 h: average Dmax % / DC50: MV4-11 cells; for DC50 / Dmax: 24 h; for DC50: read-out: SMARCA4 MSD MV411 degradation 24 h: Mean external-Abs DC50; for Dmax: MV4-11, MV4-11 cells, read-out: SMARCA4 MSD MV411 degradation 24 h: average Dmax %
T2 construct: SMARCA2/SMARCA4 protein degradation selectivity in MV4-11 cells; endogenous in cells; host or cells: MV4-11
In short: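 Fluorescent LI-COR imaging of Western blots quantified SMARCA2 and SMARCA4 protein remaining in MV4-11 cells after 24 h of compound treatment. β-actin was the loading control, and DC50, Dmax and SMARCA2/4 selectivity are given as letter-coded ranges.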

SMARCA2 [2] = target: T1, SMARCA2; assay: SMARCA2 Western blot degradation in MV4-11 cells; design: SMARCA2/SMARCA4 protein degradation selectivity in MV4-11 cells; endogenous in cells; host or cells: MV4-11; settings: for SMARCA2 MSD MV411 degradation 24 h: average Dmax % / DC50 / Selectivity in MV411: MV4-11 cells; for SMARCA2 MSD MV411 degradation 24 h: average Dmax % / DC50 / Dmax: 24 h; for DC50: read-out: SMARCA2 MSD MV411 degradation 24 h: Mean external-Abs DC50; for Selectivity in MV411: SMARCA2/4 selectivity; for Dmax: MV4-11, MV4-11 cells, read-out: SMARCA2 MSD MV411 degradation 24 h: average Dmax %

T2 sequence (P51532 whole entry): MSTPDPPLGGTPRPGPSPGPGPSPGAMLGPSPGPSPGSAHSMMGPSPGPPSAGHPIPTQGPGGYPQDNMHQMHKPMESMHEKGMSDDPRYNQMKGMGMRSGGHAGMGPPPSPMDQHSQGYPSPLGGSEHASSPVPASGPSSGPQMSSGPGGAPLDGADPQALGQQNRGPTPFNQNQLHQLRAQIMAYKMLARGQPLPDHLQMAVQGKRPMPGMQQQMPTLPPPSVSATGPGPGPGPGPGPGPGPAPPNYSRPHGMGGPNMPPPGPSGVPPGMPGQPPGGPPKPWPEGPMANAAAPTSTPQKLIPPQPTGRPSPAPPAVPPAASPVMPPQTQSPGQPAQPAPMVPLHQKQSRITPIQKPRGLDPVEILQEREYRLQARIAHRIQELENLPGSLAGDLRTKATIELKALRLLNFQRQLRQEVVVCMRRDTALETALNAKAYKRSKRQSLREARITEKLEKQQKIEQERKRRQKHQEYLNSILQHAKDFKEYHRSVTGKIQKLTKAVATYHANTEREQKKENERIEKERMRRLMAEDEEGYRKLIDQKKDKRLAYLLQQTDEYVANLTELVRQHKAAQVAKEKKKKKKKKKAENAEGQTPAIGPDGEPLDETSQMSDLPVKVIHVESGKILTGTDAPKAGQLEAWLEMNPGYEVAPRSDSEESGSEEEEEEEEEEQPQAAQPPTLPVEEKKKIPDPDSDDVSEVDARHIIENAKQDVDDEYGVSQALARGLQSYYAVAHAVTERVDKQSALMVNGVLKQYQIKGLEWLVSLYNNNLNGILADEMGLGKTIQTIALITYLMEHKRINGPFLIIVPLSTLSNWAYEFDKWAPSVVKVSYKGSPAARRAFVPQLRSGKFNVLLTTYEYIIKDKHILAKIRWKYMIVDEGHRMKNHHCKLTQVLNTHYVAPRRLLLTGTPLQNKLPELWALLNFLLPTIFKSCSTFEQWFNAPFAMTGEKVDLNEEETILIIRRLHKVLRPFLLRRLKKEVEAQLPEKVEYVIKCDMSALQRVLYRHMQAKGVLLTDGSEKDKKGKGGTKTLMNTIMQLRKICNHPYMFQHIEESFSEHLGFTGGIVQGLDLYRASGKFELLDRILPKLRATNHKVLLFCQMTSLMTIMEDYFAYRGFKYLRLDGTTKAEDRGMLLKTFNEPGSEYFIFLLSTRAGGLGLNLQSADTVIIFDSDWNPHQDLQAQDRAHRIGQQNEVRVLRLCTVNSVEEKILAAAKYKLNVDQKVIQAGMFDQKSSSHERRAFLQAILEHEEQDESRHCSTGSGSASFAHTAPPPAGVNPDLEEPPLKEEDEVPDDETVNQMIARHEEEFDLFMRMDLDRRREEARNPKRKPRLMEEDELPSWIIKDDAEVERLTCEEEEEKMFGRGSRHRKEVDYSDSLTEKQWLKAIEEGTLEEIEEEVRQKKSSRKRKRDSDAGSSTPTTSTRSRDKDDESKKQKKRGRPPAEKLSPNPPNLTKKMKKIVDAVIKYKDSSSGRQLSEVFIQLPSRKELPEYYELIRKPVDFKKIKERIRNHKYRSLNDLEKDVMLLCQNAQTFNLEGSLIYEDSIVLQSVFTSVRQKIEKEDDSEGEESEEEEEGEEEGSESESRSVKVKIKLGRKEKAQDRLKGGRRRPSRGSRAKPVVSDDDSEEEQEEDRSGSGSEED
T1 sequence (P51531 whole entry): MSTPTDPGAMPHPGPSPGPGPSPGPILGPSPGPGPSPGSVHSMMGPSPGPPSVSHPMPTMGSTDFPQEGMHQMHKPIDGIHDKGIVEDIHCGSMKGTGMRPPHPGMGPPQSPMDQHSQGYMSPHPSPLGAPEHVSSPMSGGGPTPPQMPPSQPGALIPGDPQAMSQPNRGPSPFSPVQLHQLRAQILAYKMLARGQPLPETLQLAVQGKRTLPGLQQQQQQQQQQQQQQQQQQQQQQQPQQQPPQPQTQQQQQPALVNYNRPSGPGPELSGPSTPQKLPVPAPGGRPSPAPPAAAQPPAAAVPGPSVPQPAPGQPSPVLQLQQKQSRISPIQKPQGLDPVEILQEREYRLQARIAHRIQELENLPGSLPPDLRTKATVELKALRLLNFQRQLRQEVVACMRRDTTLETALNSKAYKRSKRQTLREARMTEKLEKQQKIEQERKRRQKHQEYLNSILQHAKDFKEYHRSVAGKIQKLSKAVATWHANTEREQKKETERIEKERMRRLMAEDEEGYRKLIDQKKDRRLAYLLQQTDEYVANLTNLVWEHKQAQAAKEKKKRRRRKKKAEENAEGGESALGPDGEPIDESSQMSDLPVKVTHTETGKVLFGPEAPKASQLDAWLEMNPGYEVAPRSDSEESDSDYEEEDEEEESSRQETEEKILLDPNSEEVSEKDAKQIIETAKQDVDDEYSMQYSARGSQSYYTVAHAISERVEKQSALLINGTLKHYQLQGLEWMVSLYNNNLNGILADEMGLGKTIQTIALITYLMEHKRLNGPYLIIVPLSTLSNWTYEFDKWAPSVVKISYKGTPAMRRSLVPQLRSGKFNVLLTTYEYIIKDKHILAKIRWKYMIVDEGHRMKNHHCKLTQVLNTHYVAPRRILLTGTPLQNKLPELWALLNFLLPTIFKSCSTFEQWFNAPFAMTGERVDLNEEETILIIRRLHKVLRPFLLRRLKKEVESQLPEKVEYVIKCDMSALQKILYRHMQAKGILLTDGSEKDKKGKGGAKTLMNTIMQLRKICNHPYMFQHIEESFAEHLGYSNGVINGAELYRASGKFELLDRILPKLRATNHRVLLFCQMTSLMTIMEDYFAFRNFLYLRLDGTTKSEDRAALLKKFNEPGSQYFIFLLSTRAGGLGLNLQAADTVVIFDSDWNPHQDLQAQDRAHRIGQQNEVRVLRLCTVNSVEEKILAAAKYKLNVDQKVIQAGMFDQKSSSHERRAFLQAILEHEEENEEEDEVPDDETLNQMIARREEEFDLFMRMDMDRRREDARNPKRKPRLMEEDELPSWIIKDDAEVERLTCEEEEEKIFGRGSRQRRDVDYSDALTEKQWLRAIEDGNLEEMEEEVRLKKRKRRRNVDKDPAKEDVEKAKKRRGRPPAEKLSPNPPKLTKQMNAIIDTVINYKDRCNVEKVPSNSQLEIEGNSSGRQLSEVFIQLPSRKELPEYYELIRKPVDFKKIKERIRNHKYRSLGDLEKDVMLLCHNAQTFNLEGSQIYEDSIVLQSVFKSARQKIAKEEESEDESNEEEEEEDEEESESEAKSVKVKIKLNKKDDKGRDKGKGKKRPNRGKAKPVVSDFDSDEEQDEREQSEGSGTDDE

SMARCA2 MSD A549 degradation 24 h: Average Dmax % (SMARCA2 [1]) | DC50 (SMARCA2 [1]) [nM] | SMARCA4 MSD MV411 degradation 24 h: average Dmax % (SMARCA4) | DC50 (SMARCA4) [nM] | SMARCA2 MSD MV411 degradation 24 h: average Dmax % (SMARCA2 [2]) | DC50 (SMARCA2 [2]) [nM] | Selectivity in MV411 (SMARCA2 [2]) | Dmax (SMARCA2 [1]) [%] | Dmax (SMARCA4) [%] | Dmax (SMARCA2 [2]) [%] | SMILES
A (A (>90% degradation)) | 10 to 50 | B (B (>70-90% degradation)) | 10 to 100 | A (A (>90% degradation)) | 1 to 10 | C (C (10-100 fold)) |  |  |  | Cc1ncsc1-c1ccc(CNC(=O)[C@@H]2C[C@@H](O)CN2C(=O)[C@@H](NC(=O)[C@H]2CC3(CC[C@H](N4CCN(c5ccnc(N6CCc7[nH]c8nnc(-c9ccccc9O)cc8c7[C@H]6C)n5)CC4)CC3)C2)C(C)(C)C)cc1 (single isomer, unassigned) [I-81]
 | 50 to 100 |  | 10 to 100 |  | 1 to 10 | C (C (10-100 fold)) | 70 to 90 | > 90 | > 90 | Cc1ncsc1-c1ccc([C@H](C)NC(=O)[C@@H]2C[C@@H](O)CN2C(=O)[C@@H](NC(=O)Cc2ccc(CCCC(=O)N3CCN4c5cc(-c6ccccc6O)nnc5NC[C@H]4C3)cc2)C(C)(C)C)cc1 (single isomer, unassigned) [I-83]
 | 10 to 50 |  | 10 to 100 |  | 10 to 100 | C (C (10-100 fold)) | > 90 | > 90 | 70 to 90 | Cn1nccc1-c1ccc(CNC(=O)[C@@H]2C[C@@H](O)CN2C(=O)[C@@H](NC(=O)[C@H]2CC[C@H](c3ccc(-c4cnc(N5CCN6c7cc(-c8ccccc8O)nnc7NC[C@H]6C5)nc4)cc3)CC2)C(C)(C)C)cc1 (single isomer, unassigned) [I-87]
 | < 10 |  | 1 to 10 |  | < 1 | C (C (10-100 fold)) | > 90 | > 90 | > 90 | Cn1nccc1-c1ccc(CNC(=O)[C@@H]2C[C@@H](O)CN2C(=O)[C@@H](NC(=O)[C@H]2CC[C@@H](c3ccc(-c4cnc(N5CCN6c7cc(-c8ccccc8O)nnc7NC[C@H]6C5)nc4)cc3)CC2)C(C)(C)C)cc1 (single isomer, unassigned) [I-88]
 | > 100 |  | > 100 |  | 10 to 100 | C (C (10-100 fold)) | 70 to 90 | < 50 | 70 to 90 | C#Cc1ccc(CNC(=O)[C@@H]2C[C@@H](O)CN2C(=O)[C@@H](NC(=O)C2CCC3(CC2)CC(N2CCC(N4CCC[C@H](C(=O)N5CCN6c7cc(-c8ccccc8O)nnc7NC[C@H]6C5)C4)CC2)C3)C(C)(C)C)cc1 (single isomer, unassigned) [I-90]
 | > 100 |  | > 100 |  | 1 to 10 | A (A (>500 fold)) | > 90 | < 50 | 70 to 90 | C#Cc1ccc(CNC(=O)[C@@H]2C[C@@H](O)CN2C(=O)[C@@H](NC(=O)C2CCC3(CC2)CC(N2CCC(N4CCC[C@@H](C(=O)N5CCN6c7cc(-c8ccccc8O)nnc7NC[C@H]6C5)C4)CC2)C3)C(C)(C)C)cc1 (single isomer, unassigned) [I-91]
A (A (>90% degradation)) | > 100 | C (C (50-70% degradation)) | > 100 | B (B (>70-90% degradation)) | 10 to 100 | C (C (10-100 fold)) |  |  |  | Cc1ncsc1-c1ccc(CNC(=O)[C@@H]2C[C@@H](O)CN2C(=O)[C@@H](NC(=O)[C@H]2CCC3(CC2)C[C@H](N2CCC4(CC2)CN(C(=O)N2CCN5c6cc(-c7ccccc7O)nnc6NC[C@H]5C2)CCO4)C3)C(C)(C)C)cc1 (single isomer, unassigned) [I-93]
 | 10 to 50 |  | > 100 |  | 1 to 10 | A (A (>500 fold)) | > 90 | < 50 | 70 to 90 | C#Cc1ccc(CNC(=O)[C@@H]2C[C@@H](O)CN2C(=O)[C@@H](NC(=O)[C@H]2CCC3(CC2)C[C@H](N2CCC(c4cnc(N5CCN6c7cc(-c8ccccc8O)nnc7NC[C@H]6C5)nc4)CC2)C3)C(C)(C)C)c(F)c1 (single isomer, unassigned) [I-97]
 | 10 to 50 |  | > 100 |  | 1 to 10 | A (A (>500 fold)) | > 90 | < 50 | 70 to 90 | C#Cc1ccc(CNC(=O)[C@@H]2C[C@@H](O)CN2C(=O)[C@@H](NC(=O)[C@H]2CCC3(CC2)C[C@H](N2CCC(c4cnc(N5CCN6c7cc(-c8ccccc8O)nnc7NC[C@H]6C5)nc4)CC2)C3)C(C)(C)C)c(Cl)c1 (single isomer, unassigned) [I-98]
A (A (>90% degradation)) | < 10 | C (C (50-70% degradation)) | > 100 | B (B (>70-90% degradation)) | 1 to 10 | B (B (>100-500 fold)) |  |  |  | C#Cc1ccc(CNC(=O)[C@@H]2C[C@@H](O)CN2C(=O)[C@@H](NC(=O)[C@H]2CCC3(CC2)C[C@H](N2CCC(c4cnc(N5CCN6c7cc(-c8ccccc8O)nnc7NC[C@H]6C5)nc4)CC2)C3)C(C)(C)C)c(Cl)c1 (single isomer, unassigned) [I-99]
A (A (>90% degradation)) | < 10 |  | 10 to 100 |  | < 1 | C (C (10-100 fold)) |  | 70 to 90 | > 90 | C#Cc1ccc(CNC(=O)[C@@H]2C[C@@H](O)CN2C(=O)[C@@H](NC(=O)[C@H]2CCC3(CC2)C[C@H](N2CCC(c4cnc(N5CCN6c7cc(-c8ccccc8O)nnc7NC[C@H]6C5)nc4)CC2)C3)C(C)(C)C)c(OC)c1 (single isomer, unassigned) [I-100]
 | > 100 |  | > 100 |  | > 100 | C (C (10-100 fold)) | 50 to 70 | < 50 | < 50 | CC(C)(C)[C@H](NC(=O)[C@H]1CCC2(CC1)C[C@H](N1CCC(c3cnc(N4CCN5c6cc(-c7ccccc7O)nnc6NC[C@H]5C4)nc3)CC1)C2)C(=O)N1C[C@H](O)C[C@H]1C(=O)NCC#Cc1ccc(Cl)cc1 (single isomer, unassigned) [I-101]
A (A (>90% degradation)) | 10 to 50 |  | > 100 |  | 1 to 10 | C (C (10-100 fold)) |  | 50 to 70 | 70 to 90 | C#Cc1ccc(CNC(=O)[C@@H]2C[C@@H](O)CN2C(=O)[C@@H](NC(=O)[C@H]2CCC3(CC2)C[C@H](N2CCC(c4cnc(N5CCN6c7cc(-c8cccc(F)c8O)nnc7NC[C@H]6C5)nc4)CC2)C3)C(C)(C)C)cc1 (single isomer, unassigned) [I-102]
 | 50 to 100 |  | > 100 |  | 1 to 10 | C (C (10-100 fold)) | > 90 | 70 to 90 | 50 to 70 | CC#Cc1ccc(CNC(=O)[C@@H]2C[C@@H](O)CN2C(=O)[C@@H](NC(=O)[C@H]2CCC3(CC2)C[C@H](N2CCC(c4cnc(N5CCN6c7cc(-c8ccccc8O)nnc7NC[C@H]6C5)nc4)CC2)C3)C(C)(C)C)cc1 (single isomer, unassigned) [I-103]
A (A (>90% degradation)) | > 100 |  | > 100 |  | > 100 | C (C (10-100 fold)) |  | 70 to 90 | < 50 | Cc1cc(Cl)ccc1C#CCNC(=O)[C@@H]1C[C@@H](O)CN1C(=O)[C@@H](NC(=O)[C@H]1CCC2(CC1)C[C@H](N1CCC(c3cnc(N4CCN5c6cc(-c7ccccc7O)nnc6NC[C@H]5C4)nc3)CC1)C2)C(C)(C)C (single isomer, unassigned) [I-104]
 | 10 to 50 |  | > 100 |  | 1 to 10 | B (B (>100-500 fold)) | > 90 | 50 to 70 | 70 to 90 | C#Cc1ccc(CNC(=O)[C@@H]2C[C@@H](O)CN2C(=O)[C@@H](NC(=O)[C@H]2CC3(C2)C[C@H](N2CCC(N4CCC(N5CCN6c7cc(-c8ccccc8O)nnc7NC[C@H]6C5)CC4)CC2)C3)C(C)(C)C)cc1 (single isomer, unassigned) [I-113]
D (D (<50% degradation)) | > 100 | D (D (<50% degradation)) | > 100 | D (D (<50% degradation)) | > 100 | C (C (10-100 fold)) |  |  |  | CC(C)(C)[C@H](NC(=O)[C@H]1CCC2(CC1)C[C@H](N1CCC(c3cnc(N4CCN5c6cc(-c7ccccc7O)nnc6NC[C@H]5C4)nc3)CC1)C2)C(=O)N1C[C@H](O)C[C@H]1C(=O)NCC#Cc1ccc(Cl)cc1 (single isomer, unassigned) [I-114]
